In a melting point compilation (Tetko et al.; mined from patent text by program, amines drawn as free bases though some values may be those of a salt):

Compared with COc1ccc(S(C)=O)cc1C(=O)O (stereo not drawn), COC(=O)c1ccc(O)cc1[N+](=O)[O-] is higher in melting point: 114 to 116 °C for the first, 161 to 166 °C for the second.

First: N#Cc1ccc(-c2ccc(-c3ccc(C#N)o3)o2)cc1
Second: CSc1nc(-c2ccc(C#N)cc2)cn1-c1ccc(C#N)cc1
The melting point of the first is lower: 194 to 195 °C for the first, 209 to 219 °C for the second.

Compared with O=C(CCCCCCCCc1ccccc1)NO, CCCCCCCCCCCCCCCc1ccc(C(=O)O)c(O)c1 is higher in melting point: 75 to 77 °C for the first, 96 to 97 °C for the second.

First: Cc1nc(NC(=O)C2c3ccccc3Oc3ccccc32)no1
Second: CN(N=C(Cl)c1c(Cl)cccc1Cl)S(=O)(=O)c1ccccc1
The melting point of the first is higher: 186 °C for the first, 103 to 104 °C for the second.

First: CN1CC(CO)CC2(OCCO)c3cccc4[nH]cc(c34)CC12 (stereo not drawn)
Second: O=C(O)Cc1ccc(CCN2CCNCC2)cc1
The melting point of the first is lower: 178 to 180 °C for the first, 238 to 239 °C for the second.

Compared with Cc1cc(C(=O)O)ncc1C(c1cc(F)ccc1F)S(=O)(=O)c1ccc(Cl)cc1 (stereo not drawn), CC(C)N(CCS(=O)(=O)c1ccc(Cl)cc1)C(=O)Oc1ccccc1 is lower in melting point: 208 to 209 °C for the first, 77.5 to 79 °C for the second.

First: CCCCCCCCCCCC(=O)OC[C@H]1OCC(=NO)[C@@H](O)[C@@H]1O
Second: CCCCCS(=O)(=O)NC(=O)/C=C/c1ccc(OCCOC)cc1OCC1CC1
The melting point of the first is higher: 90 to 101 °C for the first, 64.8 to 66.3 °C for the second.

First: CCOCc1cc2c(N)cccc2cn1
Second: CCOC(=O)c1c(C(F)(F)F)nc2ccccc2c1O
The melting point of the first is lower: 95 °C for the first, 192 °C for the second.

Compared with CCOC(=O)CCCn1cc(-c2cccnc2)c2cc([N+](=O)[O-])ccc21, COC(=O)c1ccc(Cn2nc(Cl)c3ccc([N+](=O)[O-])cc32)c(OC)c1 is higher in melting point: 76 to 78 °C for the first, 131 to 132 °C for the second.

First: CC(C)(C)NC(=S)Nc1cc(Br)cc(Br)c1
Second: CC(C)(C)c1cc(C(=O)c2c[nH]c(SC#N)c2)cc(C(C)(C)C)c1O
The melting point of the first is lower: 172 to 174 °C for the first, 230 to 231 °C for the second.

First: CSC1=NC(c2cccc([N+](=O)[O-])c2)C2=C(COC2=O)N1 (stereo not drawn)
Second: O=C1c2ccccc2C(=O)N1COc1ccc([N+](=O)[O-])cc1
The melting point of the first is higher: 204 to 206 °C for the first, 145 to 148 °C for the second.

First: O=C(NCCCCCCCCc1ccccc1)c1cc(-c2cccc(Cl)c2)c(OCCO)c(-c2cccc(Cl)c2)c1
Second: CN(C(=O)c1ccccc1NC(=O)N[C@@H](Cc1ccc(NC(=O)c2c(Cl)cccc2Cl)cc1)C(=O)O)c1ccccc1
The melting point of the first is lower: 165 to 167 °C for the first, 178 °C for the second.

First: Cc1cc(-n2ccnc2)c2cccc(OCc3c(Cl)ccc(S(=O)(=O)N4CCC[C@H]4C(=O)NCCc4ccccn4)c3Cl)c2n1
Second: O=C1c2ccccc2C(=O)N1CC(=O)N1c2ccccc2N(Cc2ccccc2)C(=O)[C@H]2CCCC[C@H]21 (relative stereo)
The melting point of the first is lower: 82 °C for the first, 241 to 242 °C for the second.

First: COC(=O)C(=Cc1ccc(F)c(Cl)c1)N=[N+]=[N-]
Second: CCOC(=O)Nc1cc(C(=O)NC(C)C)c(Cl)cc1F
The melting point of the first is lower: 72 to 74 °C for the first, 127 to 130 °C for the second.

First: O=C(NCCO)c1cnccn1
Second: O=c1[nH]c(=O)c2ccncc2[nH]1
The melting point of the first is lower: 125 °C for the first, 365 °C for the second.

Compared with Nc1c(CCO)cccc1C(O)c1ccc(Cl)cc1 (stereo not drawn), Fc1ccc(C=Nc2nc3ccc(Cl)cc3s2)cc1 is higher in melting point: 132 to 134 °C for the first, 168 to 169 °C for the second.

Compared with Nc1nc(C2CCN(C(=O)Cc3ccc(O)c(O)c3)CC2)c2ccccc2n1, O=C(O)c1ccccc1OCCN1CCC(c2cn(CC3CC3)c3cc(F)ccc23)CC1 is lower in melting point: 250 to 253 °C for the first, 97 °C for the second.

Compared with CCOC(C)OC1CCC2(C)C3=C(CCC2C1(C)C)C1=CCC(C(C)CSc2ccccc2)C1(C)CC3 (stereo not drawn), CC12CCC3c4ccc(O)cc4CCC3C1CCC2OC(=O)c1cccnc1 (stereo not drawn) is higher in melting point: 101 to 107 °C for the first, 221 to 222 °C for the second.

First: C=CCCC(F)c1cc(C2(c3ccc(OC(F)F)cc3)N=C(N)N(C)C2=O)ccc1F (stereo not drawn)
Second: COc1ccc(CSc2ncn(Cc3cc4c(cc3Cl)OCO4)c2C(=O)O)cc1
The melting point of the first is lower: 50 to 55 °C for the first, 195 °C for the second.

First: CC[C@H](C)C(OCc1ccccc1)[C@H]1[C@H]([N+](=O)[O-])[C@H](c2ccsc2)N[C@@H]1C(=O)NCCC(=O)O (stereo partly drawn)
Second: O=C(O)CCCNC(=O)c1ccccc1NC(=O)c1ccccc1Cl
The melting point of the first is higher: 145 to 146 °C for the first, 110 to 112 °C for the second.

Compared with COc1ccccc1NC(=O)C1CCc2nc[nH]c2C1 (stereo not drawn), COc1cc2c(cc1OCc1ccccc1)CCCNC2=O is higher in melting point: 100 to 102 °C for the first, 192 to 193 °C for the second.

First: C=C1C=Cc2cc(C(=O)O)ccc2OC1
Second: CC1=Nc2c3cc(C(=O)O)nc-3ccn2C1
The melting point of the first is lower: 188 °C for the first, 325 to 327 °C for the second.

First: Cn1cc(C=O)c2cccc(F)c21
Second: CC(C)OC(=O)C(=C1SCCS1)c1ccc(F)cc1
The melting point of the first is lower: 92 to 94 °C for the first, 106 to 107 °C for the second.

First: CCc1cccc(C)c1CNc1c(NC(C)(C)C)c(=O)c1=O
Second: COCN1C(C)=C(C(=O)O)C(c2ccccc2)C(C(=O)OCOC(=O)C(C)(C)C)=C1C (single isomer, unassigned; (+))
The melting point of the first is higher: 240 to 244 °C for the first, 121 to 122 °C for the second.

First: OCc1ccc2c(c1)ncn2Cc1ccccc1
Second: CS(=O)(=O)Nc1ccc(C(=O)NC(=O)N2CCC(Cc3ccccc3)CC2)cc1
The melting point of the first is higher: 148 to 150 °C for the first, 97.5 to 100 °C for the second.

First: CC(=O)n1nc(S(=O)(=O)Cl)nc1N
Second: COC(=O)CN(c1ccc(OC)cc1OC)S(N)(=O)=O
The melting point of the first is higher: 166 to 168 °C for the first, 100 to 103 °C for the second.

Compared with CC1c2cc(C(C)(C)C)cc(C(C)(C)C)c2O[Si](C)(C)Oc2c1cc(C(C)(C)C)cc2C(C)(C)C, Cc1c(N)cccc1OC[C@@H]1CCCN1C(=O)OC(C)(C)C is lower in melting point: 171 to 177 °C for the first, 110 °C for the second.

Compared with CCCN(CCC)C(=O)CCC(=O)O, CC(C)c1cnc(NC(=O)Cc2csc(NC(=O)CN(C)C)n2)s1 is higher in melting point: 35 to 37 °C for the first, 70 to 71 °C for the second.

First: NCCc1ccc(Nc2ncc3c(n2)-c2ccccc2C(c2cccc(Br)c2)C3)cc1 (stereo not drawn)
Second: Cc1ccc(COc2cccc(/C=C/c3ccc(CN4CCCCC4)cc3)c2)cc1
The melting point of the first is higher: 115 to 117 °C for the first, 87 to 88 °C for the second.

First: CNC(=O)C(Cc1c[nH]c2ccccc12)NC(=O)C(CC(C)C)C(S)CC(=O)OC (stereo not drawn)
Second: C=Cc1nn(Cc2ccc(C(=O)OC)cc2OC)c2cc(C(=O)NCC3CCCC3)ccc12
The melting point of the first is lower: 73 to 75 °C for the first, 138 to 140 °C for the second.

First: Fc1cccc(CNC(=S)N2CCc3c([nH]c4ccccc34)C2c2ccc3c(c2)OCO3)c1 (stereo not drawn)
Second: O=C(c1ccc(-c2ccc3nnn(Cc4ccc5ncccc5c4)c3n2)cc1)N1CCC(N2CCCC2)CC1
The melting point of the first is higher: 179 to 181 °C for the first, 125 to 127 °C for the second.

First: O=C(NOCCO)c1cc(F)c(F)c(F)c1Nc1ccc(I)cc1Cl
Second: CC(C)Cc1cc(NC(=O)c2nccnc2Cl)ccc1C(C(F)(F)F)C(F)(F)F
The melting point of the first is higher: 183 to 184 °C for the first, 128 to 129 °C for the second.

Compared with CN1CCC(N(C)C(=O)c2ccc3nonc3c2)CC1, CC(=O)Nc1nc2ccccc2n1-c1nc(N2CCOCC2)nc(N2CCOCC2)n1 is lower in melting point: greater than 260 °C for the first, 150 to 153 °C for the second.

Compared with NS(=O)(=O)c1ccccc1OC(F)(F)C(F)(F)F, Cc1ccc(C(=O)C#CCO)cc1 is lower in melting point: 145 to 146 °C for the first, 74 °C for the second.

First: COc1ccc2c(c1)C(C)(Cl)C(=S)N2 (stereo not drawn)
Second: COc1cc(N2CCNCC2)c2ncccc2c1
The melting point of the first is higher: 202 to 204 °C for the first, 105 to 107 °C for the second.

Compared with CSc1sc(-c2nccs2)c2c1C(=O)CCC2(C)C, CSC1=N/C(=C\c2c[nH]c3ncc(Cl)cc23)C(=O)N1 is higher in melting point: 188 to 190 °C for the first, greater than 410 °C for the second.

For CCN(CC)c1ncnc2c1ncn2C1CC(F)C(CO)O1 (stereo not drawn), the melting point was 114 to 115 °C.
